Laboratory results from US20140065649A1, “TEST SYSTEMS AND METHODS FOR IDENTIFYING AND CHARACTERISING LIPID LOWERING DRUGS” (Sanofi, priority 2011, published 2014).
Entries after “also recorded” stand apart in the source; their conditions may differ.

Columns and labels:
[1] = tested on: normolipidemic male Syrian hamsters; conditions: in vivo, sc
Description: (§1) Male Syrian hamsters (strain RjHan: AURA in Study 1 and Bio™ F1B in Study 2), weighing between 90 and 100 g, were purchased from Janvier, Germany, and were allowed to acclimatize for a period of 7 days before entering the study.
(§2) The investigation was divided into 2 studies. […] For each study, body weight and food consumption (weight changes in chow) were measured once a week, starting 1 week before dosing. […] In Study 1, samples were taken on Days −6, 1, 7, 14, 21, and 28; in Study 2, samples were taken on Days −7, 0, 3, and 7. Serum was obtained after centrifugation using Serum-Gel® tubes (Sarstedt, Nümbrecht, Germany).
(§3) At the end of each study, animals were sacrificed in a nonfasted state and liver was immediately weighed and shock frozen on dry ice.
(§4) All data are expressed as means±standard error of the mean (SEM) and were tested for normality and variance homogeneity before analysis. […] In Study 1, the vehicle-treated control versus treatment-naive control group was analyzed separately using 2-way ANOVA followed by the Dunnett test. A P value of ≦0.05 was considered statistically significant. Food consumption and safety parameters (AST, ALT, AP, and CK) were descriptively evaluated.

[2] = Study 1: serum 316P levels by sandwich ELISA; format: in vivo, Mesocricetus auratus; conditions: Study 1, 24-hour time point, 1, 3, and 10 mg/kg
[3] = tested on: hepatic low density lipoprotein receptor (LDLR) protein; assay: Study 2: hepatic LDLR levels by Western blot; format: in vivo, Mesocricetus auratus; conditions: Study 2, Western blot; 316P 10 mg/kg, atorvastatin 2×20 mg/kg
[4] = molecular target: hPCSK9 D238 mutated (D238R) (Homo sapiens, UniProt Q8NBP7, D238R); conditions: cited from earlier work
humans = conditions: human phase 1 study, interim analysis, single i.v. administration; cited from earlier work
[5] = tested on: normolipidemic male Syrian hamsters; assay: Study 1: serum lipids after single s.c. injection in normolipidemic hamsters; format: in vivo, Mesocricetus auratus; conditions: for decrease in TC: Day 7
[6] = tested on: normolipidemic male Syrian hamsters; conditions: Study 1, single s.c. 1, 3, or 10 mg/kg, data not shown
[7] = tested on: normolipidemic male Syrian hamsters; assay: Study 2: safety parameters, body weight, liver weight and liver lipids
Description: as §1, §2, §3, §4

[8] = tested on: normolipidemic male Syrian hamsters; assay: Study 2: serum lipids, atorvastatin twice daily with and without single s.c. 316P in normolipidemic hamsters; format: in vivo, Mesocricetus auratus
[9] = tested on: PCSK9-mediated down-regulation of LDL uptake via LDLR in HepG2 cells; conditions: cited from earlier work
hPCSK9 = hPCSK9 (Homo sapiens, UniProt Q8NBP7); conditions: cited from earlier work
PCSK9 = conditions: in hamsters; cited from earlier work
[10] = tested on: human HepG2 or Huh7 cells; conditions: cited from earlier work
dyslipidemic hamsters = conditions: cited from earlier work
[11] = D238 mutated vs unmutated hPCSK9
[12] = Study 2, 316P single s.c. 10 mg/kg alone, sustained until Day 7
[13] = Study 2, atorvastatin alone 10 or 20 mg/kg p.o. twice daily, after 7 days

hPCSK9, sequence (Q8NBP7 153-692): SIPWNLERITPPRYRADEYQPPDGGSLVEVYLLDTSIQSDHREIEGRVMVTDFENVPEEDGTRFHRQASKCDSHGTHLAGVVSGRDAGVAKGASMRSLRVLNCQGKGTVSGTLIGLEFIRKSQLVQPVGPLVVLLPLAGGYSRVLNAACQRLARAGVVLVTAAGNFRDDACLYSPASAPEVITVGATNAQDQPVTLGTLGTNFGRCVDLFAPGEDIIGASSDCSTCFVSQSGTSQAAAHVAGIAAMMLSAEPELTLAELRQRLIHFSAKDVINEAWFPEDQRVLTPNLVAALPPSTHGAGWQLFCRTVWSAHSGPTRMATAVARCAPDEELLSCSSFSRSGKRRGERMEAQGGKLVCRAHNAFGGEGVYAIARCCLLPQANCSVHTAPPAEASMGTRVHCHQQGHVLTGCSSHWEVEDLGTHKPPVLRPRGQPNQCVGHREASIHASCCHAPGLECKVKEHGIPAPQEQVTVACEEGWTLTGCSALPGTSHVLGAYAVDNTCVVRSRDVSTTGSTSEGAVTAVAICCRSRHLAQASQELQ
hPCSK9 D238 mutated (D238R), sequence (Q8NBP7 153-692 D238R): as the sequence (Q8NBP7 153-692) above, with D86R counted along it

## 316P: fully human monoclonal anti-PCSK9 antibody comprising HCVR SEQ ID NO: 9 and LCVR SEQ ID NO: 10 [Antibody 316P]
[1]
  effects on relative liver weight, hepatic cholesterol, TG or phospholipid concentration: no clinically relevant effects
[2]
  serum 316P concentration vs dose: proportional to theoretical dosing levels
[3]
  level of hepatic LDLR expression compared with the PBS control groups: 149%
  level of hepatic LDLR protein versus PBS control: 1.5 fold
[4]; [11]
  decrease of T1/2: > 30 fold
  reduction in binding affinity: > 400 fold
[4]; D238 mutated
  T1/2: ~1 min
[4]; D238 mutated, read-out: KD (binding affinity)
  Kd: ~410 nM
humans
  LDL-C reduction: exceeded 60%
  duration of LDL-C reduction: 30 days
[5]; Study 1, data not shown
  reduction in HDL-C: statistically significant but less pronounced than the effect on LDL-C
[5]; Study 1, every dose throughout the study
  serum TG levels: remained relatively constant
[5]; Study 1, single s.c. 1 mg/kg
  decrease in TC: 9%
[5]; Study 1, single s.c. 1 mg/kg, after Day 1, vs PBS control
  maximal effect on LDL-C (reduction): 17%
[5]; Study 1, single s.c. 3 mg/kg
  decrease in TC: 17%
[5]; Study 1, single s.c. 3 mg/kg, after Day 7, vs PBS control
  maximal effect on LDL-C (reduction): 27%
[5]; Study 1, single s.c. 10 mg/kg
  decrease in TC: 28%
[5]; Study 1, single s.c. 10 mg/kg, after Day 7, vs PBS control
  maximal effect on LDL-C (reduction): 59%
[5]; Study 1, single s.c. 1, 3, or 10 mg/kg
  duration of dose-dependent decrease in LDL-C (TC and LDL-C): more than 2 weeks
[5]; Study 1, single s.c. injection
  day on which LDL-C levels reach PBS control-treated levels (0% reduction): 28 days
[5]; highest dose 10 mg/kg, data not shown
  HDL-C levels: significant reduction
[6]
  effects on safety parameters, relative liver weight, hepatic cholesterol, TG, phospholipid concentration: no biologically relevant effects
[7]; Study 2
  tolerability: well tolerated
[8]; Study 2, 316P 10 mg/kg (groups not specified), data not shown
  reduction in HDL-C: statistically significant but less pronounced than the effect on LDL-C
[8]; [12]
  effect on serum LDL-C: potent effect
  effect on serum TC: potent effect
[9]
  effect on PCSK9-mediated down-regulation of LDL uptake via LDLR: antagonizes
hPCSK9; in humans
  binding affinity for PCSK9: high binding affinity
hPCSK9; unmutated hPCSK9
  T1/2: ~37 min
hPCSK9; unmutated hPCSK9, read-out: KD (binding affinity)
  Kd: ~1 nM
PCSK9
  binding affinity for PCSK9: high binding affinity

## CC(C)c1c(C(=O)Nc2ccccc2)c(-c2ccccc2)c(-c2ccc(F)cc2)n1CC[C@@H](O)C[C@@H](O)CC(=O)O [atorvastatin]
[7]; Study 2, atorvastatin 2×10 or 20 mg/kg
  ALT levels: slight, clinically insignificant increase; also recorded: biologically relevant increase
[8]; Study 2, atorvastatin 2×20 mg/kg, after 7 days of treatment
  reduction in TG levels: 23%
[8]; Study 2, atorvastatin alone 10 mg/kg or 20 mg/kg p.o. twice daily, after 7 days
  reduction of serum TG levels: 23%
[8]; [13]
  effect on serum HDL-C: no significant effect
  effect on serum LDL-C: no significant effect
  effect on serum TC: no significant effect

## CC(C)c1nc(N(C)S(C)(=O)=O)nc(-c2ccc(F)cc2)c1/C=C/[C@@H](O)C[C@@H](O)CC(=O)O [rosuvastatin]
[10]
  effect on the level of HNF1 alpha: no appreciable effect
  increase in LDLR mRNA and protein: ≈ 2 fold
  increase in PCSK9 mRNA and protein: ≈ 3 fold
Dyslipidemic hamsters
  hepatic LDLR levels: reduced
  serum LDL-C levels: slightly increased
